pEC50: −log10 of the molar value.
Key:
[1] = system: recombinant NL4-3 virus (nef section replaced with Renilla luciferase gene) in MT-2 cells; assay: HIV cell culture assay (antiviral activity, luciferase readout); assay type: cell-based; conditions: Renilla, NL43, MT-2 cells infected for 4-5 days with recombinant NL4-3 Renilla luciferase virus, serial dilutions of compound
Method in brief: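 Test compound in serial dilution was present while MT-2 cells were infected for 4–5 days with recombinant NL4-3 virus made in 293T cells. Antiviral activity was quantified as Renilla luciferase activity, read with a live-cell substrate. EC50 came from the median-effect equation.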

[2] = Compound cytotoxicity, XTT-based colorimetric assay; assay type: cell-based; conditions: human, uninfected MT2 cells, day 4, XTT
Method in brief: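 Run under the antiviral-assay protocol but without virus. Viability was read on day 4 and CC50 values were derived from the readout.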

| Compound | pEC50 [1] | CC50 at 4 day [2] [nM] |
| --- | --- | --- |
| Cc1ncc(-c2ccc3c(=O)n(-c4ccc(Cl)c5c(NS(C)(=O)=O)nn(CC(F)F)c45)c([C@H](Cc4cc(F)cc(F)c4)NC(=O)Cn4nc(C(F)F)c5c4C(F)(F)[C@@H]4C[C@H]54)nc3c2)cn1 [Example 174, N-((S)-1-(3-(4-chloro-1-(2,2-difluoroethyl)-3-(methylsulfonamido)-1H-indazol-7-yl)-7-(2-methylpyrimidin-5-yl)-4-oxo-3,4-dihydroquinazolin-2-yl)-2-(3,5-difluorophenyl)ethyl)-2-((3bS,4aR)-3-(difluoromethyl)-5,5-difluoro-3b,4,4a,5-tetrahydro-1H-cyclopropa[3,4]cyclopenta[1,2-c]pyrazol-1-yl)acetamide] | 10.48 | > 500 |
| Cc1cccc(-c2ccc3c(=O)n(-c4ccc(Cl)c5c(NS(C)(=O)=O)nn(CC(F)F)c45)c([C@H](Cc4cc(F)cc(F)c4)NC(=O)Cn4nc(C(F)F)c5c4C(F)(F)[C@@H]4C[C@H]54)nc3c2)n1 [Example 175, N-((S)-1-(3-(4-chloro-1-(2,2-difluoroethyl)-3-(methylsulfonamido)-1H-indazol-7-yl)-7-(6-methylpyridin-2-yl)-4-oxo-3,4-dihydroquinazolin-2-yl)-2-(3,5-difluorophenyl)ethyl)-2-((3bS,4aR)-3-(difluoromethyl)-5,5-difluoro-3b,4,4a,5-tetrahydro-1H-cyclopropa[3,4]cyclopenta[1,2-c]pyrazol-1-yl)acetamide] | 10.10 | > 500 |
| CS(=O)(=O)Nc1nn(CC(F)F)c2c(-n3c([C@H](Cc4cc(F)cc(F)c4)NC(=O)Cn4nc(C(F)F)c5c4C(F)(F)[C@@H]4C[C@H]54)nc4cc(-c5ccccc5S(C)(=O)=O)ccc4c3=O)ccc(Cl)c12 [Example 176, N-((S)-1-(3-(4-chloro-1-(2,2-difluoroethyl)-3-(methylsulfonamido)-1H-indazol-7-yl)-7-(2-(methylsulfonyl)phenyl)-4-oxo-3,4-dihydroquinazolin-2-yl)-2-(3,5-difluorophenyl)ethyl)-2-((3bS,4aR)-3-(difluoromethyl)-5,5-difluoro-3b,4,4a,5-tetrahydro-1H-cyclopropa[3,4]cyclopenta[1,2-c]pyrazol-1-yl)acetamide] | 10.18 | > 500 |
| CCS(=O)(=O)c1ccccc1-c1ccc2c(=O)n(-c3ccc(Cl)c4c(NS(C)(=O)=O)nn(CC(F)F)c34)c([C@H](Cc3cc(F)cc(F)c3)NC(=O)Cn3nc(C(F)F)c4c3C(F)(F)[C@@H]3C[C@H]43)nc2c1 [Example 177, N-((S)-1-(3-(4-chloro-1-(2,2-difluoroethyl)-3-(methylsulfonamido)-1H-indazol-7-yl)-7-(2-(ethylsulfonyl)phenyl)-4-oxo-3,4-dihydroquinazolin-2-yl)-2-(3,5-difluorophenyl)ethyl)-2-((3bS,4aR)-3-(difluoromethyl)-5,5-difluoro-3b,4,4a,5-tetrahydro-1H-cyclopropa[3,4]cyclopenta[1,2-c]pyrazol-1-yl)acetamide] | 10.28 | > 500 |
| CC(C)S(=O)(=O)c1ccccc1-c1ccc2c(=O)n(-c3ccc(Cl)c4c(NS(C)(=O)=O)nn(CC(F)F)c34)c([C@H](Cc3cc(F)cc(F)c3)NC(=O)Cn3nc(C(F)F)c4c3C(F)(F)[C@@H]3C[C@H]43)nc2c1 [Example 178, N-((S)-1-(3-(4-chloro-1-(2,2-difluoroethyl)-3-(methylsulfonamido)-1H-indazol-7-yl)-7-(2-(isopropylsulfonyl)phenyl)-4-oxo-3,4-dihydroquinazolin-2-yl)-2-(3,5-difluorophenyl)ethyl)-2-((3bS,4aR)-3-(difluoromethyl)-5,5-difluoro-3b,4,4a,5-tetrahydro-1H-cyclopropa[3,4]cyclopenta[1,2-c]pyrazol-1-yl)acetamide] | 10.19 | > 500 |
| COc1ccc(-c2ccc3c(=O)n(-c4ccc(Cl)c5c(NS(C)(=O)=O)nn(C)c45)c([C@H](Cc4cc(F)cc(F)c4)NC(=O)Cn4nc(C(F)F)c5c4C(F)(F)[C@@H]4C[C@H]54)nc3c2)c(CO)c1 [Example 179, N-((S)-1-(3-(4-chloro-1-methyl-3-(methylsulfonamido)-1H-indazol-7-yl)-7-(2-(hydroxymethyl)-4-methoxyphenyl)-4-oxo-3,4-dihydroquinazolin-2-yl)-2-(3,5-difluorophenyl)ethyl)-2-((3bS,4aR)-3-(difluoromethyl)-5,5-difluoro-3b,4,4a,5-tetrahydro-1H-cyclopropa[3,4]cyclopenta[1,2-c]pyrazol-1-yl)acetamide] | 9.63 | > 500 |
| Cn1nc(NS(C)(=O)=O)c2c(Cl)ccc(-n3c([C@H](Cc4cc(F)cc(F)c4)NC(=O)Cn4nc(C(F)F)c5c4C(F)(F)[C@@H]4C[C@H]54)nc4cc(-c5cc(F)ccc5CO)ccc4c3=O)c21 [Example 180, N-((S)-1-(3-(4-chloro-1-methyl-3-(methylsulfonamido)-1H-indazol-7-yl)-7-(5-fluoro-2-(hydroxymethyl)phenyl)-4-oxo-3,4-dihydroquinazolin-2-yl)-2-(3,5-difluorophenyl)ethyl)-2-((3bS,4aR)-3-(difluoromethyl)-5,5-difluoro-3b,4,4a,5-tetrahydro-1H-cyclopropa[3,4]cyclopenta[1,2-c]pyrazol-1-yl)acetamide] | 9.70 | > 500 |
| CC(C)Oc1ccccc1-c1ccc2c(=O)n(-c3ccc(Cl)c4c(NS(C)(=O)=O)nn(C)c34)c([C@H](Cc3cc(F)cc(F)c3)NC(=O)Cn3nc(C(F)F)c4c3C(F)(F)[C@@H]3C[C@H]43)nc2c1 [Example 181, N-((S)-1-(3-(4-chloro-1-methyl-3-(methylsulfonamido)-1H-indazol-7-yl)-7-(2-isopropoxyphenyl)-4-oxo-3,4-dihydroquinazolin-2-yl)-2-(3,5-difluorophenyl)ethyl)-2-((3bS,4aR)-3-(difluoromethyl)-5,5-difluoro-3b,4,4a,5-tetrahydro-1H-cyclopropa[3,4]cyclopenta[1,2-c]pyrazol-1-yl)acetamide] | 9.15 | > 500 |
| CS(=O)(=O)Nc1nn(CC(F)(F)F)c2c(-n3c([C@H](Cc4cc(F)cc(F)c4)NC(=O)Cn4nc(C(F)(F)F)c5c4C(F)(F)[C@@H]4C[C@H]54)nc4cc(-c5ccccc5F)ccc4c3=O)ccc(Cl)c12 [Example 182, N-((S)-1-(3-(4-chloro-3-(methylsulfonamido)-1-(2,2,2-trifluoroethyl)-1H-indazol-7-yl)-7-(2-fluorophenyl)-4-oxo-3,4-dihydroquinazolin-2-yl)-2-(3,5-difluorophenyl)ethyl)-2-((3bS,4aR)-5,5-difluoro-3-(trifluoromethyl)-3b,4,4a,5-tetrahydro-1H-cyclopropa[3,4]cyclopenta[1,2-c]pyrazol-1-yl)acetamide] | 9.06 | > 500 |
| CS(=O)(=O)Nc1nn(CC(F)F)c2c(-n3c([C@H](Cc4cc(F)cc(F)c4)NC(=O)Cn4nc(C(F)F)c5c4C(F)(F)[C@@H]4C[C@H]54)nc4cc(-c5ccccc5F)ccc4c3=O)ccc(Cl)c12 [Example 183, N-((S)-1-(3-(4-chloro-1-(2,2-difluoroethyl)-3-(methylsulfonamido)-1H-indazol-7-yl)-7-(2-fluorophenyl)-4-oxo-3,4-dihydroquinazolin-2-yl)-2-(3,5-difluorophenyl)ethyl)-2-((3bS,4aR)-3-(difluoromethyl)-5,5-difluoro-3b,4,4a,5-tetrahydro-1H-cyclopropa[3,4]cyclopenta[1,2-c]pyrazol-1-yl)acetamide] | 9.41 | > 500 |
| Cn1nc(NS(C)(=O)=O)c2c(Cl)ccc(-n3c([C@H](Cc4cc(F)cc(F)c4)NC(=O)Cn4nc(C(F)F)c5c4C(F)(F)[C@@H]4C[C@H]54)nc4cc(-c5ccc(Cl)cc5F)ccc4c3=O)c21 [Example 184, N-((S)-1-(3-(4-chloro-1-methyl-3-(methylsulfonamido)-1H-indazol-7-yl)-7-(4-chloro-2-fluorophenyl)-4-oxo-3,4-dihydroquinazolin-2-yl)-2-(3,5-difluorophenyl)ethyl)-2-((3bS,4aR)-3-(difluoromethyl)-5,5-difluoro-3b,4,4a,5-tetrahydro-1H-cyclopropa[3,4]cyclopenta[1,2-c]pyrazol-1-yl)acetamide] | 8.74 | > 500 |
| Cn1nc(NS(C)(=O)=O)c2c(Cl)ccc(-n3c([C@H](Cc4cc(F)cc(F)c4)NC(=O)Cn4nc(C(F)F)c5c4C(F)(F)[C@@H]4C[C@H]54)nc4cc(-c5c(F)cccc5F)ccc4c3=O)c21 [Example 185, N-((S)-1-(3-(4-chloro-1-methyl-3-(methylsulfonamido)-1H-indazol-7-yl)-7-(2,6-difluorophenyl)-4-oxo-3,4-dihydroquinazolin-2-yl)-2-(3,5-difluorophenyl)ethyl)-2-((3bS,4aR)-3-(difluoromethyl)-5,5-difluoro-3b,4,4a,5-tetrahydro-1H-cyclopropa[3,4]cyclopenta[1,2-c]pyrazol-1-yl)acetamide] | 9.21 | > 1000 |
| COc1ccccc1-c1ccc2c(=O)n(-c3ccc(Cl)c4c(NS(C)(=O)=O)nn(C)c34)c([C@H](Cc3cc(F)cc(F)c3)NC(=O)Cn3nc(C(F)F)c4c3C(F)(F)[C@@H]3C[C@H]43)nc2c1 [Example 186, N-((S)-1-(3-(4-chloro-1-methyl-3-(methylsulfonamido)-1H-indazol-7-yl)-7-(2-methoxyphenyl)-4-oxo-3,4-dihydroquinazolin-2-yl)-2-(3,5-difluorophenyl)ethyl)-2-((3bS,4aR)-3-(difluoromethyl)-5,5-difluoro-3b,4,4a,5-tetrahydro-1H-cyclopropa[3,4]cyclopenta[1,2-c]pyrazol-1-yl)acetamide] | 8.62 | > 1000 |

— US11505543B2, “4-oxo-3,4-dihydroquinazoline compounds as inhibitors of human immunodeficiency virus replication” (VIIV HEALTHCARE UK (NO.5) LIMITED, priority 2018, dated 2022)
